Experimental data: US12264163B2, “Compounds and methods for treating fibrotic pathologies” (Mayo Foundation for Medical Education and Research, priority 2019, dated 2025)
Counter-ions that a name gives are not always drawn.

Columns and labels:
[1] = test system: YAP/TAZ; test: YAP/TAZ nuclear localization in IPF patient-derived lung fibroblasts treated with dopaminergic agonists; type: cell-based, human; settings: 10 μM, 2 hours
Procedure: IPF patient-derived lung fibroblasts cells treated 2 hours prior to fixation with diverse dopaminergic agonists (10 μM). N=4 different patient samples. % nuclear localization of YAP/TAZ was determined using automated imaging software. Scale bar represents 100 μm.
(§1) Media was then exchanged for the indicated conditions for each experiment. […] Cells or tissue sections were incubated overnight with mouse monoclonal antibody against αSMA (Sigma-Aldrich F3777), and/or a rabbit monoclonal antibody against YAP/TAZ (Cell Signaling D24E4) diluted 1:200 in PBS with 1% BSA. Cells were then washed and exposed to flourescence-conjugated secondary antibodies (Invitrogen) diluted 1:1000 and DAPI (Thermo Fisher Scientific). Images were taken with a Cytation5 (BioTek) microscope. For scoring αSMA positive cells (FIG. 12), an observer blinded to the treatment conditions counted αSMA-positive cells using a visual threshold for bright fibrous staining; a minimum of 200 cells was counted for each condition. YAP/TAZ localization was quantified (FIGS. 6-10, 24-26, and 29-30) using Gen5 (Biotek) software. Images were taken at 4× magnification of both DAPI and YAP/TAZ staining. […] Quantification of double positive (YAP/TAZ and αSMA) cells from lung tissue sections (FIG. 17-21) was performed similarly; however separate thresholds were established for both YAP/TAZ and αSMA. A minimum of 4000 cells was quantified for each mouse.

[2] = test system: αSMA; test: αSMA intensity (fibroblast activation) in IPF patient-derived lung fibroblasts + TGFβ, dopaminergic agonist library; type: cell-based, human; settings: 1 μM + TGFβ; for αSMA intensity (% of DMSO control): 72 hours
Procedure: as §1

[3] = test system: D1 receptor; settings: cited from earlier work
[4] = test system: CTGF, COL1A1, ACTA2, FN1; test: Profibrotic / matrix remodeling gene expression by qPCR in fibroblasts; type: cell-based, human; settings: human dermal fibroblasts, 24 hours +/− 2 ng/mL TGFβ
Procedure: Genes which encode Connective tissue growth factor (CTGF), Collagen I (COL1A1), αSMA (ACTA2), and Fibronectin (FN1) are reduced by 24 hour treatment with DHX (10 μM), +/−SCH 39166 (3 μM). N=3 (****p<0.0001, ***p<0.001, *p<0.05 vs. 0.1% DMSO vehicle control)
IPF patient-derived fibroblasts cultured in media containing 0.1% FBS were stimulated for 24 hours with 2 ng/mL TGFβ and 10 μM DHX prior to RNA isolation. Genes which encode for ECM crosslinking: transglutaminase 2 (TGM2), lysyl oxidase and lysyl oxidase-like enzymes (LOX and LOXL1-4), ECM degradation: uPA (PLAU), tPa (PLAT), cathepsin K (CTSK), and matrix metalloprotease-14 (MMP14) and ECM protease inhibitors: metalloprotease inhibitor 3 (TIMP3), and plasminogen activator inhibitor 1 (SERPINE1) were measured. N=3. (****p<0.0001, ***p<0.001, **p<0.01, *p<0.05 vs. 0.1% DMSO vehicle control non-TGFβ treated), (++++p<0.0001, ++p<0.01, +p<0.05 vs. 0.10% DMSO vehicle control TGFβ treated).
For all other in vitro experiments, cells were treated as indicated prior to RNA isolation using RNeasy Plus Mini Kit (Qiagen) according to manufacturer's instructions. Isolated RNA (250 ng) was then used to synthesize cDNA using SuperScript VILO (Invitrogen). Quantitative PCR was performed using FastStart Essential DNA Green Master (Roche) and analyzed using a LightCycler 96 (Roche). Data are expressed as a fold change by ΔΔCt relative to GAPDH. For in vivo experiments, tissue was immediately frozen, and stored at −80° C. RNA isolation, cDNA synthesis, and qPCR analysis were performed as above.

[5] = test system: YAP/TAZ; test: YAP/TAZ nuclear localization in IMR-90 and other fibroblasts / mesenchymal cells (immunofluorescence); type: cell-based, human
Procedure: Selective agonists of dopamine receptor D1 with varying efficacy inhibit YAP/TAZ nuclear localization; this effect can be overcome by treatment with a DRD1 receptor antagonist (SCH 39166, 3 μM), (Dihydrexidine, 10 μM). IMR-90 cells treated 2 hours prior to fixation. N=4 (****p<0.0001 vs. 0.10% DMSO vehicle control). Scale bar represents 100 μm.
In each case DHX treatment (10 μM) can reverse this effect on YAP/TAZ. IMR-90 cells plated densely onto plastic cell culture plates for 24 hours in media containing 0.1% FBS, treated for 2 hours prior to fixation. N=4 (****p<0.0001 vs. 0.1% DMSO vehicle control), (++++p<0.0001 vs. the respective stimulated agonist ET-1, LPA, or 5-HT). Scale bar represents 100 μm.
Mesenchymal cells derived from lung (IMR-90 and IPF-FBs) hepatic stellate cells (HSC), human adult cardiac fibroblasts, (HACF) and human dermal fibroblasts (HDF) were plated densely (Confluent) or sparsely (Control and all remaining conditions) onto plastic cell culture plates for 24 hours in media containing 0.10% FBS, treated for 2 hours with Rho kinase inhibitor Y27632, adenylate cyclase activator forskolin and DHX. N=4, Cells that were positive for nuclear YAP/TAZ were quantified by automated image analysis.
Immunofluorescence Microscopy: Cells were plated into 96 well plates (Corning 3603) in their specific growth media and allowed to attach (8 hours). Media was then exchanged for the indicated conditions for each experiment. Cells were fixed in 3.7% formalin (Sigma-Aldrich), permeabilized in 0.25% Triton X-100 (Sigma-Aldrich) and then blocked with 1% BSA for 1 h. Cells or tissue sections were incubated overnight with mouse monoclonal antibody against αSMA (Sigma-Aldrich F3777), and/or a rabbit monoclonal antibody against YAP/TAZ (Cell Signaling D24E4) diluted 1:200 in PBS with 1% BSA. Cells were then washed and exposed to flourescence-conjugated secondary antibodies (Invitrogen) diluted 1:1000 and DAPI (Thermo Fisher Scientific). Images were taken with a Cytation5 (BioTek) microscope. For scoring αSMA positive cells (FIG. 12), an observer blinded to the treatment conditions counted αSMA-positive cells using a visual threshold for bright fibrous staining; a minimum of 200 cells was counted for each condition. YAP/TAZ localization was quantified (FIGS. 6-10, 24-26, and 29-30) using Gen5 (Biotek) software. Images were taken at 4× magnification of both DAPI and YAP/TAZ staining. […] Quantification of double positive (YAP/TAZ and αSMA) cells from lung tissue sections (FIG. 17-21) was performed similarly; however separate thresholds were established for both YAP/TAZ and αSMA. A minimum of 4000 cells was quantified for each mouse.

Row | Compound | Nuclear localization (% of total cells) ([1]; IPF-1 patient fibroblasts) | Nuclear localization (% of total cells) ([1]; IPF-2 patient fibroblasts) | Nuclear localization (% of total cells) ([1]; IPF-3 patient fibroblasts) | Nuclear localization (% of total cells) ([1]; IPF-4 patient fibroblasts) | αSMA intensity (% of DMSO control) ([2]; IPF-1 patient fibroblasts) | αSMA intensity (% of DMSO control) ([2]; IPF-2 patient fibroblasts) | αSMA intensity (% of DMSO control) ([2]; IPF-3 patient fibroblasts) | αSMA intensity (% of DMSO control) ([2]; IPF-4 patient fibroblasts) | efficacy at elevating cAMP (D1 receptor) [3] | profibrotic gene expression in human dermal fibroblasts [4] | potency of inhibition of YAP/TAZ nuclear localization, normal vs IPF lung fibroblasts ([5]; normal lung fibroblasts vs those from a patient with IPF) | activity at 1 µM ([2]; Homo sapiens, SMA, 72 h, IPF-3 patient fibroblasts, read-out: αSMA intensity (% of DMSO control)) | YAP/TAZ nuclear localization ([5]; fibroblasts / mesenchymal cells on plastic, 2 hours)
1 | Cl.NC[C@@H]1O[C@H](c2ccccc2)Cc2c1ccc(O)c2O [A 68930•HCl, A 68930] | 33.13 % of total cells | 30.59 % of total cells | 26.82 % of total cells | 10.26 % of total cells | 12.4 % of DMSO control | 8.111 % of DMSO control | 3.245 % of DMSO control | 7.35 % of DMSO control | lacks full efficacy to elevate cAMP | blocks profibrotic gene expression | – | – | –
2 | Cc1cccc(C(=O)NCN2CCN(c3ccccc3C#N)CC2)c1.O=C(O)/C=C\C(=O)O [PD 168077 maleate, PD 168077] | 67.08 % of total cells | 42.44 % of total cells | 63.68 % of total cells | 68.4 % of total cells | 75.27 % of DMSO control | 56.15 % of DMSO control | 75.77 % of DMSO control | 66.5 % of DMSO control | – | – | – | – | –
3 | CCCCC[C@H](O)/C=C/[C@H]1[C@H](O)CC(=O)[C@@H]1C/C=C\CCCC(=O)O [PGE2, prostaglandin E2] | – | – | – | – | – | – | – | – | – | – | reduced potency | – | –
4 | Br.C=CCN1CCc2c(cc(O)c(O)c2Br)[C@@H](c2ccccc2)C1 [R(+)-6-BROMO-APB•HBr, R(+)-6-BROMO-APB] | 28.37 % of total cells | 38 % of total cells | 36 % of total cells | 25.65 % of total cells | 11.25 % of DMSO control | 2.507 % of DMSO control | 0.8506 % of DMSO control | 22.82 % of DMSO control | – | – | – | – | –
5 | Br.CCCN1CCc2cc(O)cc3c2[C@H]1Cc1ccc(O)c(O)c1-3 [R(−)-2,10,11-Trihydroxy-N-propyl-noraporphine] | 32.87 % of total cells | 35.25 % of total cells | 37.7 % of total cells | 25.36 % of total cells | 4.895 % of DMSO control | 8.436 % of DMSO control | 2.988 % of DMSO control | 25.61 % of DMSO control | – | – | – | – | –
6 | COc1ccc2c(c1O)-c1cc(O)cc3c1[C@@H](C2)N(C)CC3.Cl [R(−)-2,11-dihydroxy-10-methoxyapomorphine] | 85.18 % of total cells | 74.67 % of total cells | 80.73 % of total cells | 80.45 % of total cells | 91.84 % of DMSO control | 92.8 % of DMSO control | 81.85 % of DMSO control | 85.61 % of DMSO control | – | – | – | – | –
7 | CCCN(CCC)CCc1cccc2c1CC(=O)N2 [Ropinirole HCl, Ropinirole] | 69.6036 % of total cells | 58.68 % of total cells | 64.66 % of total cells | 65.7 % of total cells | – | – | – | – | – | – | – | 79% | –
8 | Oc1cc2c(c(Cl)c1O)CCNCC2c1ccccc1 (stereo not shown) [SKF-81297] | – | – | – | – | – | – | – | – | – | – | – | – | reduced nuclear localization of YAP/TAZ
9 | Oc1ccc2c(c1O)Cc1cccc3c1[C@H]2CNC3 [dinapsoline] | – | – | – | – | – | – | – | – | full magnitude cAMP response | – | – | – | –
10 | Oc1ccc2c(c1O)Oc1cccc3c1C2CNC3 (stereo not shown) [dinoxyline] | – | – | – | – | – | – | – | – | full magnitude cAMP response | – | – | – | –
11 | R(−)-2,10,11-Trihydroxyaporphine [R(−)-2,10,11-Trihydroxyaporphine•HBr] | 13.71 % of total cells | 22.15 % of total cells | 24.15 % of total cells | 17.75 % of total cells | 2.888 % of DMSO control | 1.698 % of DMSO control | 7.646 % of DMSO control | 15.9942 % of DMSO control | – | – | – | – | –
12 | R(−)-Propylnorapomorphine [R(−)-Propylnorapomorphine•HCl] | 28.35 % of total cells | 26.71 % of total cells | 42.74 % of total cells | 29.03 % of total cells | 5.081 % of DMSO control | 1.879 % of DMSO control | 5.561 % of DMSO control | 19.96 % of DMSO control | – | – | – | – | –
